Assay results taken from patent EP3301100A1, “ORGANOMETALLIC FLUCONAZOLE DERIVATES AND THEIR USE AS ANTIMYCOTICS” (Universität Zürich, priority 2016, dated 2018).
Values after ≈ are worked out from the molar mass of the structure shown.

Legend:
[1] = system: human retinal pigment epithelial cell (RPE-1-hTert); experiment: cells
Method: In both topic and systemic applications, antimycotic drugs are getting in contact with patient tissues. It is therefore of utmost importance that new drug candidates display a lack of host toxicity. Thus, the antiproliferative effect of the new complexes were investigated in vitro on human retinal pigment epithelial cell (RPE-1-hTert). […] Table 1: Host cytotoxicity
Human fibroblast (MRC-5) and retinal pigment epithelial (RPE) cell lines were cultured in F-10 medium supplemented with 10% fetal calf serum (FCS, Gibco), 100 U/mL penicillin, 100 µg/mL streptomycin or DMEM medium (Gibco) supplemented with 10% fetal calf serum (FCS, Gibco), 100 U/mL penicillin, 100 µg/mL streptomycin, respectively, at 37 °C and 6% CO2.
Cytotoxicity studies of the compounds of the present invention were performed by a fluorometric cell viability assay using resazurin (Promocell GmbH). Briefly, one day before treatment the cells were plated in triplicate in 96-well plates at a density of 4 × 10^3 cells per well in 100 µL. Upon treating the cells with increasing concentrations of the compounds of the present invention, the cells were incubated for 48 h at 37 °C/6% CO2, the medium was removed, and 100 µL of complete medium containing resazurin (0.2 mg mL^-1 final concentration) was added. After 4 h of incubation at 37 °C/6% CO2, the fluorescence of the highly red fluorescent resorufin product was quantified at 590 nm emission with 540 nm excitation wavelength using a SpectraMax M5 Microplate Reader. The results were expressed as mean ± standard deviation error of independent experiments.

[2] = system: Candida albicans; experiment: Antifungal activity on pathological isolated strain (EUCAST susceptibility testing, MIC50); format: cell-based; details: C. albicans, ≥ 50% inhibition of growth after 48 h incubation
Method: (§1) In vivo studies were performed on pathological isolated strains. […] The compounds of the present invention were tested against Candida albicans, its azole-resistant type and three different pathologic fungi, namely Penicillumpaneum, Aspergillus glaucus and Trichosporonasahi (see table 2). […] Table 2: In vivo antifungal activity
(§2) Candida strains were tested for their susceptibility to the azole (7 dilution series, ranging from 1 mM to 0.01 mM) following the European Committee for Antimicrobial Susceptibility Testing protocol (EUCAST Definitive Document EDef 7.2 Revision, 2012). Briefly, cells were grown in RPMI1640 medium supplied with 2.0% glucose, counted and inoculated at a concentration of 1-5 x 10^5 CFU/ml.

[3] = system: C. albicans (res. Strains); experiment: as above; format: cell-based, Candida albicans; details: for MIC50: C. albicans (res. Strains), azole-resistant, ≥ 50% inhibition of growth after 48 h incubation
Method: as §1, §2

[4] = system: P. paneum; experiment: as above; format: cell-based, Penicillumpaneum; details: for MIC50: P. paneum, ≥ 50% inhibition of growth after 48 h incubation
Method: as §1, §2

[5] = system: A. glaucus; experiment: as above; format: cell-based, Aspergillus glaucus; details: ≥ 50% inhibition of growth after 48 h incubation
Method: as §1, §2

[6] = system: T. asahi; experiment: as above; format: cell-based, Trichosporonasahi; details: ≥ 50% inhibition of growth after 48 h incubation
Method: as §1, §2

[7] = system: Candida Robusta; details: wild type C. robusta, agar, 24 h at 30 °C; result in words, comparison with the parent drug
Method: To evaluate the antifungal acitivty of the new drug candidates, a well-plate based assay was used. The first investigation of antimycotic activity has been performed on a well-known model, namely Candida Robusta. Wild type colony of C. robusta was cultured and diluted to start the growing phase just before treatment and then seeded at different concentrations on the agar terrain poured with different concentrations of the target complexes and incubated for 24 h at 30 °C.
Wild type C. robusta was freshly inoculated and cultured in autoclaved YPD buffer containing 2% bacto peptone, 1% bacto yeast extract and 2% glucose anhydrous at 30°C (Kuehner shaker Labtherm, Kuehner Switzerland).
Briefly, one day before treatment, an aliquot of wild type C. robustawas inoculated in 5 mL YPD buffer solution (see above) and incubated overnight at 30°C. The fungal proliferation was then quantified at 600 nm in a Cary60 UV/Vis (Agilent Technologies). The SC was then seeded at different concentrations of the yeast (representing OD of 0.2, 0.02, 0.002 and 0.0002 for different colony growth rate) in 24-wells plates containing 2 mL growing terrain. […] The fungal colony formation was monitored with Alpha Digitec camera (Bucher Biotec) and the colony density was calculated with Alphalmager software (v1.3.0.7) with multiplex band analysis mode / single tool. […]

OC(Cn1cncn1)(Cn1cncn1)c1ccc(F)cc1F [Fluconazole]
cell viability [1]: did not affect cell viability | IC50 ([1]; Homo sapiens, Epithelial cell, 48 h): > 100 µM | MIC50 ([2]; Candida albicans): 0.8 µM (≈ 0.245 µg/mL) | MIC50 ([3]; Candida albicans): > 209 µM | MIC50 [4]: >209 µM | MIC50 ([5]; Aspergillus glaucus): 0.8 µM (≈ 0.245 µg/mL) | MIC50 [6]: 1.6 µM (≈ 0.49 µg/mL)

Cl.OC(CNC[c-]1cccc1)(Cn1cncn1)c1ccc(F)cc1F.[Fe+2].c1cc[cH-]c1 (stereo not drawn) [H, syn/anti-N-(ferrocenylmethyl)-2-(2,4-difluorophenyl)-2-hydroxy-3-(1H-1,2,4-triazol-1-yl)propan-1-aminium chloride]
IC50 ([1]; RPE-1-hTert cells, 48 h incubation, resazurin, mean ± standard deviation error): > 100 µM

C[NH+](C[c-]1cccc1)CC(O)(Cn1cncn1)c1ccc(F)cc1F.[Cl-].[Fe+2].c1cc[cH-]c1 (stereo not drawn) [Methyl, syn/anti-N-(ferrocenylmethyl)-2-(2,4-difluorophenyl)-2-hydroxy-N-methyl-3-(1H-1,2,4-triazol-1-yl)propan-1-aminium chloride]
MIC50 [2]: 0.07 µM | MIC50 [3]: 0.7 µM | azole resistance ([3]; C. albicans resistant strain, result in words): able to overcome azole resistance | MIC50 [4]: 0.25 µM | antimycotic potency over the parent drug ([4]; e.g. P.paneum, factor versus fluconazole): ≤ 800 fold | MIC50 [5]: >1 µM | MIC50 [6]: 0.13 µM | antifungal activity [7]: highest antimycotic activity
